# Test results from patent US20250333405A1, “ANTAGONISTS OF GPR39 PROTEIN” (VASOCARDEA, INC., priority 2024, published 2025).
# Target: T1, human GPR39 receptor (Homo sapiens, UniProt O43194)
# T1 construct: PC3 Cells, Expressing the Endogenous Human GPR39 Receptor; endogenous in cells; host or cells: PC3 (human prostate adenocarcinoma) cells
# T1 sequence (O43194 1-453): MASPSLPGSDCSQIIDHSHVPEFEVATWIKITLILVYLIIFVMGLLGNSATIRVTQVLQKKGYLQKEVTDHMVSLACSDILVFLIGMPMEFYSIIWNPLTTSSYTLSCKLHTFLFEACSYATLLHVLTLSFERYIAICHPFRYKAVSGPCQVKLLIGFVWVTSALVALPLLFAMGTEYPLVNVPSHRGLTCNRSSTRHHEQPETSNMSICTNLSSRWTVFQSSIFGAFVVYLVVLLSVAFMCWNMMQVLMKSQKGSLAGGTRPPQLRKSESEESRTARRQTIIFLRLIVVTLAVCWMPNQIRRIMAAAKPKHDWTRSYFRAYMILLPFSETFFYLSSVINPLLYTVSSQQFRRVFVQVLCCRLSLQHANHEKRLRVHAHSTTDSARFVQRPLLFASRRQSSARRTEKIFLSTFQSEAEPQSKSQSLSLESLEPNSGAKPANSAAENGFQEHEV
# Assay: Intracellular calcium response (FLIPR, Calcium-6) in PC3 cells, antagonism of agonist C3 (TC-G 1008) at EC90
# Assay type: cell-based
# Details: functional pKi (-Log10Ki) by modified Cheng-Prusoff from IC50; PC3 cells endogenously expressing human GPR39; 30 μM ZnCl2; agonist C3 (TC-G 1008) at EC90 1.5 μM; read-out: fpKi activity
# Protocol: Measurement of Intracellular Calcium Response in PC3 Cells, Expressing the Endogenous Human GPR39 Receptor
# Human prostate adenocarcinoma (PC3) cells endogenously expressing human GPR39 receptor were seeded into black walls clear-base 384-well plates at a density of 7,500 cells per well in DMEM (Low Glucose) supplemented with 10% heat-inactivated foetal bovine serum and 1% of Pen/Strep and grown overnight at 37° C., 5% CO2. After washing with assay buffer (20 mM HEPES, 137 mM NaCl, 5.4 mM KCl, 10 mM glucose, 0.8 mM MgSO4, 1.3 mM CaCl2), 0.3 mM Na2HPO4, 0.4 mM KH2PO4 4.2 mM NaHCO3, pH 7.4), cells were incubated with Calcium-6 probe (Molecular Devices) at 37° C. for 2 h and then equilibrated at RT for 30 minutes on metal block. The fluorescence was measured in real time by Fluorometric Imaging Plate Reader (FLIPR TETRA, Molecular Devices) (excitation wavelength at 470-495 nm, emission wavelength at 515-575 nm). Compounds of invention were serially diluted in neat DMSO at 1000 fold concentrations and plated into 384-well plates and then 200-fold diluted in assay buffer containing 150 μM ZnCl2 (30 μM final concentration) and 1.1% DMSO (0.32% final concentration). A dual addition FLIPR protocol was used which included a first addition of compounds 200-fold diluted in Assay Buffer containing 150 μM ZnCl2 and 1.1% DMSO and then after 10 minutes a second addition of a submaximal concentration of the hGPR39 receptor agonist, C3 (Tocris, TC-G 1008) at EC90 (concentration producing 90% of the maximal response) value of 1.5 μM. Fluorescence was monitored throughout the run assay. The peak of Ca2+ stimulation (baseline subtracted) was expressed as percentage of the maximal inhibition of the EC90 C3 response and was plotted versus the concentration of test compound. Curve fitting and IC50 estimations are carried out using a four-parameter logistic model using XLfit Software. […] An fpKi less than 5.2 is reported as “+/−”. An fpKi ranging from 5.2 to 5.9 is reported as “+”. An fpKi from 6.0 to 6.5 is reported as “++”. An fpKi from 6.6 to 7.2 is reported as “+++”. An fpKi equal to or greater than 7.3 is reported as “++++”.
row,SMILES,Ki [µM]
1,"O=C(Nc1ccc(C(=O)N2CCS(=O)(=O)CC2)c(-c2cnc(C(F)(F)F)s2)c1)C1CC1 [Example 27, N-[4-(1,1-dioxo-1,4-thiazinane-4-carbonyl)-3-[2-(trifluoromethyl)-1,3-thiazol-5-yl]phenyl]cyclopropanecarboxamide]",1.26 to 6.31
2,"Cc1nnc(-c2ccc(C(=O)N3CCN(C)CC3c3ccccc3)c(N3CCC(C(C)C)C3)c2)[nH]1 (single isomer, unassigned) [Example 125c, (4-methyl-2-phenylpiperazin-1-yl)-[4-(5-methyl-4H-1,2,4-triazol-3-yl)-2-(3-propan-2-ylpyrrolidin-1-yl)phenyl]methanone]",0.0631 to 0.251
3,"Cc1nnc(-c2ccc(C(=O)N3CCC(C(F)(F)F)CC3)c(-c3cccc(C(F)(F)F)n3)c2)[nH]1 [Example 73, [4-(5-methyl-4H-1,2,4-triazol-3-yl)-2-[6-(trifluoromethyl)pyridin-2-yl]phenyl]-[4-(trifluoromethyl)piperidin-1-yl]methanone]",≤ 0.0501
4,"Cc1nnc(-c2ccc(C(=O)N3CCN(C)CC3c3ccccc3)c(N3CCC(C(C)C)C3)c2)[nH]1 (single isomer, unassigned) [Example 125b, (4-methyl-2-phenylpiperazin-1-yl)-[4-(5-methyl-4H-1,2,4-triazol-3-yl)-2-(3-propan-2-ylpyrrolidin-1-yl)phenyl]methanone]",≤ 0.0501
5,"Cc1nnc(-c2ccc(C(=O)N3CCC(C(F)(F)F)CC3)c(-c3ccn(C4CCC4)n3)c2)[nH]1 [Example 47, [2-(1-cyclobutylpyrazol-3-yl)-4-(5-methyl-4H-1,2,4-triazol-3-yl)phenyl]-[4-(trifluoromethyl)piperidin-1-yl]methanone]",≤ 0.0501
6,"COC1(C)CCN(C(=O)c2ccc(-c3nnc(C)[nH]3)cc2-c2ccn(C(C)(C)C)n2)CC1 [Example 66, [2-(1-tert-butylpyrazol-3-yl)-4-(5-methyl-4H-1,2,4-triazol-3-yl)phenyl]-(4-methoxy-4-methyl-1-piperidyl)methanone]",≤ 0.0501
7,"Cc1cc(-c2ccc(C(=O)N3CCC(F)(F)CC3)c(-c3ccn(C(C)C)n3)c2)[nH]n1 [Example 86, (4,4-difluoro-1-piperidyl)-[2-(1-isopropylpyrazol-3-yl)-4-(5-methyl-1H-pyrazol-3-yl)phenyl]methanone]",≤ 0.0501
8,"Cc1cc(Cl)cc(C2CN(C)CCN2C(=O)c2ccc(NC(=O)C3CC3)cc2N2CCCC2)c1 (racemic) [Example 110, N-[4-[2-(3-chloro-5-methylphenyl)-4-methylpiperazine-1-carbonyl]-3-pyrrolidin-1-ylphenyl]cyclopropanecarboxamide]",≤ 0.0501
9,"Cn1ccc(-c2cc(NC(=O)C3CC3)ccc2C(=O)N2CCC(F)(F)CC2)n1 [Example 22, N-[4-(4,4-difluoropiperidine-1-carbonyl)-3-(1-methylpyrazol-3-yl)phenyl]cyclopropanecarboxamide]",0.0631 to 0.251
10,"Cc1nnc(-c2ccc(C(=O)N3CCC(F)(F)CC3)c(-c3nccc(C(F)(F)F)n3)c2)[nH]1 [Example 77, (4,4-difluoro-1-piperidyl)-[4-(5-methyl-4H-1,2,4-triazol-3-yl)-2-[4-(trifluoromethyl)pyrimidin-2-yl]phenyl]methanone]",≤ 0.0501
11,"Cc1nnc(-c2ccc(C(=O)N3CCC(C(F)(F)F)CC3)c(-c3nc(C4CC4)cs3)c2)[nH]1 [Example 69, [2-(4-cyclopropylthiazol-2-yl)-4-(5-methyl-4H-1,2,4-triazol-3-yl)phenyl]-[4-(trifluoromethyl)-1-piperidyl]methanone]",≤ 0.0501
12,"O=C(Nc1ccc(C(=O)N2CC3CC(C3)C2)c(N2CCCC2)c1)C1CC1 [Example 9, N-[4-(3-azabicyclo[3.1.1]heptane-3-carbonyl)-3-pyrrolidin-1-ylphenyl]cyclopropanecarboxamide]",0.316 to 1
13,"Cc1nnc(-c2ccc(C(=O)N3CCC(F)(F)CC3)c(-c3cccc(C(C)(C)C)n3)c2)[nH]1 [Example 79, [2-(6-tert-butyl-2-pyridyl)-4-(5-methyl-4H-1,2,4-triazol-3-yl)phenyl]-(4,4-difluoro-1-piperidyl)methanone]",≤ 0.0501
14,"Cc1nnc(-c2ccc(C(=O)N3CCC(C(F)(F)F)CC3)c(-c3cccc(C4CC4)n3)c2)[nH]1 [Example 71, [2-(6-cyclopropylpyridin-2-yl)-4-(5-methyl-4H-1,2,4-triazol-3-yl)phenyl]-[4-(trifluoromethyl)piperidin-1-yl]methanone]",≤ 0.0501
15,"O=C(Nc1ccc(C(=O)N2CC3CCC(C2)O3)c(N2CCCC2)c1)C1CC1 [Example 6, N-[4-(8-oxa-3-azabicyclo[3.2.1]octane-3-carbonyl)-3-pyrrolidin-1-ylphenyl]cyclopropanecarboxamide]",0.316 to 1
16,"CC(C)n1ccc(-c2cc(-c3cc(C(F)(F)F)n[nH]3)ccc2C(=O)N2CCC(F)(F)CC2)n1 [Example 84, (4,4-difluoro-1-piperidyl)-[2-(1-isopropylpyrazol-3-yl)-4-[5-(trifluoromethyl)-1H-pyrazol-3-yl]phenyl]methanone]",0.316 to 1
17,"CCOC(=O)c1csc(-c2cc(-c3nnc(C)[nH]3)ccc2C(=O)N2CCC(F)(F)CC2)n1 [Example 82, ethyl 2-[2-(4,4-difluoropiperidine-1-carbonyl)-5-(5-methyl-4H-1,2,4-triazol-3-yl)phenyl]thiazole-4-carboxylate]",1.26 to 6.31
18,"O=C(c1ccc(-c2nnc[nH]2)cc1N1CCCC1)N1CCC(C(F)(F)F)CC1 [Example 112, [2-pyrrolidin-1-yl-4-(4H-1,2,4-triazol-3-yl)phenyl]-[4-(trifluoromethyl)piperidin-1-yl]methanone]",0.0631 to 0.251
19,"Cc1nnc(-c2ccc(C(=O)N3CCC4(CC3)CC4)c(-c3cnn(C(C)C)c3)c2)[nH]1 [Example 49, 6-azaspiro[2.5]octan-6-yl-[4-(5-methyl-4H-1,2,4-triazol-3-yl)-2-(1-propan-2-ylpyrazol-4-yl)phenyl]methanone]",0.316 to 1
20,"Cc1nnc(-c2ccc(C(=O)N3CCC(OC(F)(F)F)CC3)c(-c3ccn(C(C)C)n3)c2)[nH]1 [Example 56, 1-[4-(5-methyl-4H-1,2,4-triazol-3-yl)-2-[1-(propan-2-yl)-1H-pyrazol-3-yl]benzoyl]-4-(trifluoromethoxy) piperidine]",≤ 0.0501
21,"Cc1nnc(Nc2ccc(C(=O)N3CCN(C)CC3c3ccccc3)c(N3CCCC3)c2)s1 (stereo not shown) [Example 20, (4-methyl-2-phenylpiperazin-1-yl)-[4-[(5-methyl-1,3,4-thiadiazol-2-yl)amino]-2-pyrrolidin-1-ylphenyl]methanone]",1.26 to 6.31
22,"O=C(Nc1ccc(C(=O)N2C3CCC2COC3)c(N2CCCC2)c1)C1CC1 [Example 7, N-[4-(3-oxa-8-azabicyclo[3.2.1]octane-8-carbonyl)-3-pyrrolidin-1-ylphenyl]cyclopropanecarboxamide]",1.26 to 6.31
23,"CS(=O)(=O)NC1CCN(C(=O)c2ccc(NC(=O)C3CC3)cc2N2CCCC2)CC1 [Example 105, N-[4-[4-(methanesulfonamido)piperidine-1-carbonyl]-3-pyrrolidin-1-ylphenyl]cyclopropanecarboxamide]",> 6.31
24,"Cc1nnc(-c2ccc(C(=O)N3CCC(C(C)(C)C)CC3)c(-c3ccn(C(C)C)n3)c2)[nH]1 [Example 40, (4-tert-butyl-1-piperidyl)-[2-(1-isopropylpyrazol-3-yl)-4-(5-methyl-4H-1,2,4-triazol-3-yl)phenyl]methanone]",0.0631 to 0.251
25,"Cc1nnc(-c2ccc(C(=O)N3CCN(C)CC3c3ccccc3)c(N3CCC(C(C)C)C3)c2)[nH]1 (single isomer, unassigned) [Example 125d, (4-methyl-2-phenylpiperazin-1-yl)-[4-(5-methyl-4H-1,2,4-triazol-3-yl)-2-(3-propan-2-ylpyrrolidin-1-yl)phenyl]methanone]",≤ 0.0501
